Laboratory results reported in patent publication US20150216848A1, “COMPOUNDS THAT INHIBIT TAU PHOSPHORYLATION” (THE TRANSLATIONAL GENOMICS RESEARCH INSTITUTE, priority 2010, published 2015).
Entries after “also recorded” stand apart in the source; their conditions may differ. Like-named read-outs stand apart in the source and are kept apart here.

Tests used:
[1] = tested on: H4 neuroglioma cell line; test: Viability (toxicity) assay, alamar Blue; type: cell-based; conditions: for effect on the viability of the cells at the lower doses: 9-ethylharmine 1 μM, harmine 0.8 μM; for IC50: read-out: IC50 for viability (toxicity)
[2] = tested on: total tau and phosphorylated tau (12E8 pS262/pS356, pT231, pS396) in 4R0N tau overexpressing H4 neuroglioma cells; test: Cell culture tau assay (Western blot of total and phosphorylated tau); type: cell-based; conditions: for effects in the cell-based tau assay: FIG. 3; for phosphorylated forms of tau (12E8 pS262/pS356, pT231, pS396): H4-tau cells, 80 nM, 800 nM and 8 μM, 96 hours; for total tau and phosphorylated forms of tau: doses up to 500 μM
[3] = target: T1, recombinant human DYRK1A (Homo sapiens, UniProt Q13627); type: biochemical; conditions: for IC50: recombinant DYRK1A and 4R2N tau, 1 mM ATP, read-out: IC50, inhibition of DYRK1A dependent tau phosphorylation at serine 396
T1 construct: purchased Invitrogen (DYRK1A); SignalChem (tau)

[4] = tested on: spatial working memory and short-term memory retention; test: Delayed-match-to-sample asymmetrical 3-choice task; type: in vivo, rat
Description: (§1) Twenty-six 17 month-old Fischer-344 male rats raised at the National Institute on Aging colony at Harlan Laboratories (Indianapolis, Ind.) were used in the study. After arrival, rats were pair-housed, had food and water ad-lib, and were maintained on a 12-h light/dark cycle. Procedures were approved by the Institutional Animal Care and Use Committee, and adhered to National Institutes of Health standards.
(§2) Rats were randomly divided into three treatment groups (n at start of study, m included in final behavioral analyses): vehicle (10, 10), low-Harmine 1 mg/kg (10, 10), or high-Harmine 5 mg/kg (10, 6). […]
Spatial working memory and short-term memory retention were evaluated using a win-stay water-escape DMS asymmetrical place-learning task. […] Entry into any non-platformed arm was counted as an error. An arm entry was counted when the tip of a rat's snout reached a mark on the outside of the arm (not visible from the inside of the maze; 11 cm into the arm).
In an initial analysis, Harmine-low and Harmine-high groups were compared. […] DMS data were analyzed with an omnibus ANOVA with treatment as the between groups variable and total number of errors for each trial as repeated measures. MM data were analyzed with an omnibus ANOVA with treatment as the between groups variable and swim distance (cm) to the platform as repeated measures. […]

[5] = tested on: spatial reference memory; test: Morris water maze; type: in vivo, rat; conditions: rats
Description: as §1, §2
Spatial reference memory was evaluated using the Morris Maze. […] A video camera and tracking system tracked and measured each rat's swim pathway.
(§3) In an initial analysis, Harmine-low and Harmine-high groups were compared. […] DMS data were analyzed with an omnibus ANOVA with treatment as the between groups variable and total number of errors for each trial as repeated measures. MM data were analyzed with an omnibus ANOVA with treatment as the between groups variable and swim distance (cm) to the platform as repeated measures. […] Visible platform data were further analyzed using a regression analysis with testing squad (1-3) as the predictor and mean escape latency across trials 1-6 as the criterion. […]

[6] = tested on: motor and visual competence; test: Visible platform task and observed motor side effects; type: in vivo, rat; conditions: rats
Description: as §1
Rats were randomly divided into three treatment groups (n at start of study, m included in final behavioral analyses): vehicle (10, 10), low-Harmine 1 mg/kg (10, 10), or high-Harmine 5 mg/kg (10, 6). Nine days after arrival, animals started receiving daily subcutaneous injections at a volume of 1 ml/kg. […] Behavioral testing began after the second injection day, testing commenced approximately 30-45 minutes after injections and lasted for 6-8 hours. Animals were assigned semi-randomly to one of three testing squads of 10 animals each balanced with respect to treatment group.
Four days after MM testing, motor and visual competence were evaluated using the visible platform task. This was an adaptation of the cue-navigation version of the spatial MM task previously used to dissociate visual and motor acuity from place memory. This task was ideal due to its similarity to other spatial water-maze tasks with respect to motor and visual requirements, differing only in that animals are not required to associate the location of the platform with distal cues. […]
as §3

Q: CCn1c2cc(OC)ccc2c2ccnc(C)c21 [9-ethyl harmine] was tested. Which “effect on the viability of the cells at the lower doses” value [1] did it give?
A: The value was “no detectable effect”.

Q: And the IC50 [1]?
A: The IC50 was 9 µM.

Q: And the “reducing total tau and phosphorylated tau levels” value ([2]; 1 μM)?
A: The value was “significant reductions”.

Q: What about the “reducing total tau and phosphorylated tau levels” value ([2]; dose of 10 μM) of the same molecule?
A: Its value is “significant effects”.

Q: And the IC50 [3]?
A: Its IC50 is 0.4 µM.

Q: Which IC50 [1] does the source give for COc1ccc2c3c([nH]c2c1)C(C)=NCC3 [harmaline] here?
A: The IC50 was 56 µM.

Q: And the “effects in the cell-based tau assay” value [2]?
A: Its value is “relatively muted effects”.

Q: And the “affinity relative to harmine in the in vitro phosphorylation assay” value (“affinity relative to harmine” for short) [3]?
A: Its value is “more than an order of magnitude lower in affinity than harmine”.

Q: Which IC50 [1] does the source give for Cc1nccc2c1[nH]c1ccccc12 [harmane] here?
A: The IC50 was 32 µM.

Q: And the “effects in the cell-based tau assay” value [2]?
A: The value was “relatively muted effects”.

Q: What about the “affinity relative to harmine” value [3] of the same molecule?
A: Its value is “more than an order of magnitude lower in affinity than harmine”.

Q: How did the “effect on the viability of the cells at the lower doses” value [1] turn out when COc1ccc2c(c1)[nH]c1c(C)nccc12 [harmine] was run?
A: Its value is “no detectable effect”.

Q: What about the IC50 [1] of the same molecule?
A: The IC50 was 12 µM.

Q: And the “reducing total tau and phosphorylated tau levels” value ([2]; 0.8 μM)?
A: Its value is “significant reductions”.

Q: What about the “levels of total tau protein” value ([2]; 0.8 μM and 8 μM) of the same molecule?
A: The value was “reduce the levels of total tau protein”.

Q: What about the “phosphorylated forms of tau (12E8 pS262/pS356, pT231, pS396)” value [2] of the same molecule?
A: Its value is “dose-dependent reduction”.

Q: And the “phosphorylated forms of tau (12E8 pS262/pS356, pT231, pS396)” value ([2]; listed as Harmine)?
A: Its value is “reduced the expression of each phospho-tau species tested”.

Q: What about the “reducing total tau and phosphorylated tau levels” value ([2]; dose of 10 μM) of the same molecule?
A: Its value is “significant effects”.

Q: What about the “total errors on the DMS task, testing block 4 (Days 8-9), trials 2-6” value ([4]; 17 month-old Fischer-344 male rats, 1 and 5 mg/kg daily subcutaneous, groups combined, vs vehicle, P=0.03) of the same molecule?
A: The value was “enhanced working and short-term memory; also recorded: fewer total errors”.

Q: What about the “DMS task, testing blocks 1, 2 or 3” value ([4]; rats, 1 and 5 mg/kg s.c. combined) of the same molecule?
A: Its value is “no main effects”.

Q: What about the “Morris maze distance swam to the platform, days 1-3” value ([5]; 1 and 5 mg/kg s.c.) of the same molecule?
A: The value was “no Harmine treatment main effects”.

Q: What about the “effect on spatial reference memory” value ([5]; doses tested 1 and 5 mg/kg s.c.) of the same molecule?
A: Its value is “no significant effect”.

Q: And the “decrease of mean escape latency with each squad tested (visible platform task)” value ([6]; Harmine-high 5 mg/kg s.c.)?
A: Its value is “roughly 11.6 seconds”.

Q: And the “duration of motor impairments after injections” value ([6]; Harmine-high 5 mg/kg s.c.)?
A: Its value is 1 to 2 h.

Q: What about the motoric effects ([6]; harmine treatment) of the same molecule?
A: Its motoric effects is “obvious motoric effects”.

Q: How did the “total tau and phosphorylated forms of tau” value [2] turn out when O=C(NCCN1CCOCC1)c1ccc(Cl)cc1 [moclobemide, reference compound] was run?
A: The value was “did not affect tau phosphorylation”.

Q: And the “total tau and phosphorylated forms of tau” value ([2]; listed as Moclobemide)?
A: Its value is “did not reduce levels”.

Q: How did the IC50 [1] turn out when c1ccc2c(c1)[nH]c1cnccc12 [norharmane] was run?
A: The IC50 was 95 µM.

Q: What about the “effects in the cell-based tau assay” value [2] of the same molecule?
A: Its value is “relatively muted effects”.

Q: And the “affinity relative to harmine” value [3]?
A: Its value is “more than an order of magnitude lower in affinity than harmine”.

Q: Which IC50 ([1]; H4 neuroglioma cell line, alamar Blue, fresh drug every 24 hours for 4 days) does the source give for harmol here?
A: Its IC50 is 18 µM.

Q: What about the “reducing total tau and phosphorylated tau levels” value ([2]; dose of 10 μM) of the same molecule?
A: Its value is “significant effects”.

Q: What about the IC50 [3] of the same molecule?
A: The IC50 was 0.09 µM.
